Test: xn = mol fraction of the nth substance listed
Conditions: Liquid

CCCCCl [1-chlorobutane] + CCCCCC
mass density [kg/m3]
Conditions | x1 = 0.1099 | x1 = 0.212 | x1 = 0.2925 | x1 = 0.316 | x1 = 0.405 | x1 = 0.4978 | x1 = 0.5975 | x1 = 0.6869 | x1 = 0.8294 | x1 = 0.9025
323.15 K, 5000 kPa | – | – | 691.59 | 696.23 | 714.41 | 734.25 | 756.52 | 777.43 | 812.8 | 831.94
323.15 K, 10000 kPa | 663.04 | 682.03 | 697.57 | 702.21 | 720.41 | 740.23 | 762.49 | 783.36 | 818.69 | 837.82
323.15 K, 15000 kPa | 668.53 | 687.54 | 703.11 | 707.76 | 725.96 | 745.81 | 768.07 | 788.94 | 824.21 | 843.35
323.15 K, 20000 kPa | 673.62 | 692.66 | 708.23 | 712.92 | 731.15 | 751.01 | 773.25 | 794.16 | 829.43 | 848.55
323.15 K, 25000 kPa | 678.38 | 697.47 | 713.06 | 717.75 | 736.01 | 755.88 | 778.17 | 799.07 | 834.36 | 853.47
323.15 K, 30000 kPa | 682.82 | 701.95 | 717.58 | 722.3 | 740.59 | 760.48 | 782.79 | 803.7 | 839.01 | 858.16
323.15 K, 35000 kPa | 687.05 | 706.22 | 721.89 | 726.62 | 744.94 | 764.87 | 787.22 | 808.14 | 843.47 | 862.63
333.15 K, 100 kPa | 640.84 | 659.59 | 674.97 | 679.61 | 697.62 | 717.27 | 739.37 | 760.13 | 795.31 | 814.35
333.15 K, 2500 kPa | 644.37 | 663.28 | 678.48 | 683.13 | 701.13 | 720.76 | 742.8 | 763.57 | 798.68 | 817.7
333.15 K, 5000 kPa | 647.85 | 666.6 | 681.96 | 686.6 | 704.59 | 724.22 | 746.27 | 766.97 | 802.05 | 821.05
333.15 K, 10000 kPa | 654.25 | 673.04 | 688.41 | 693.04 | 711.02 | 730.64 | 752.68 | 773.35 | 808.4 | 827.36
333.15 K, 15000 kPa | 660.12 | 678.96 | 694.34 | 698.97 | 716.97 | 736.59 | 758.64 | 779.29 | 814.33 | 833.22
333.15 K, 20000 kPa | 665.54 | 684.42 | 699.82 | 704.46 | 722.46 | 742.1 | 764.16 | 784.83 | 819.85 | 838.75
333.15 K, 25000 kPa | 670.56 | 689.51 | 704.94 | 709.59 | 727.62 | 747.28 | 769.35 | 790.03 | 825.07 | 843.95
333.15 K, 30000 kPa | 675.27 | 694.27 | 709.73 | 714.38 | 732.45 | 752.13 | 774.27 | 794.94 | 830 | 848.89
333.15 K, 35000 kPa | 679.71 | 698.78 | 714.25 | 718.92 | 737.02 | 756.72 | 778.9 | 799.6 | 834.7 | 853.59
